Laboratory results as given in the NIST ThermoML archive (doi:10.1021/je900093h).
± gives the expanded uncertainty stated by the source.

Legend:
[1] = molar enthalpy of vaporization or sublimation; conditions: 304.79 K; Liquid; Static calorimetry
[2] = molar heat capacity at constant pressure; conditions: 101.33 kPa, Vacuum adiabatic calorimetry

CCCCCCCCCC(=O)OCC [ethyl decanoate]
Conditions	molar enthalpy [kcal/mol]
[1]	16.7 ± 0.335

molar heat capacity at constant pressure [J/K/mol], [2]
Conditions	Crystal	Liquid
5 K	0.498 ± 0.019	–
10 K	4.477 ± 0.053	–
15 K	11.92 ± 0.12	–
20 K	21.04 ± 0.19	–
25 K	30.97 ± 0.27	–
30 K	41.18 ± 0.34	–
35 K	51.36 ± 0.43	–
40 K	61.27 ± 0.51	–
45 K	71.2 ± 0.59	–
50 K	80.91 ± 0.66	–
60 K	98.99 ± 0.81	–
70 K	115.2 ± 0.9	–
80 K	130.2 ± 1.1	–
90 K	144.3 ± 1.2	–
100 K	157.4 ± 1.3	–
110 K	169.3 ± 1.4	–
120 K	180 ± 1.5	–
130 K	189.6 ± 1.5	–
140 K	198.3 ± 1.6	–
150 K	206.8 ± 1.7	–
160 K	214.7 ± 1.7	–
170 K	222.5 ± 1.8	–
180 K	230.5 ± 1.9	–
190 K	238.8 ± 1.9	–
200 K	247.4 ± 2	–
210 K	256.7 ± 2.1	–
220 K	266.7 ± 2.2	–
230 K	277.5 ± 2.2	–
240 K	288.9 ± 2.3	–
250 K	301.2 ± 2.4	–
253.6 K	305.7 ± 2.5	386.5 ± 3.1
260 K	–	388.1 ± 3.1
270 K	–	391.3 ± 3.2
280 K	–	395.2 ± 3.2
290 K	–	399.6 ± 3.2
298.15 K	–	403.5 ± 3.3
300 K	–	404.4 ± 3.3
310 K	–	409.6 ± 3.3
320 K	–	415 ± 3.3
330 K	–	420.6 ± 3.4
340 K	–	426.4 ± 3.4
350 K	–	432.3 ± 3.5
360 K	–	438.3 ± 3.5
370 K	–	444.5 ± 3.6
